Holding throughout (test): growth of human tumour cells (NCI), 48 h
The test system of assay [1] is SW-620 colon.
For assay [2], the system named is HCT-15 colon.
The subject of assay [3] is BT-549 breast.
The subject of assay [4] is KM12 colon.
The subject of assay [5] is K-562 leukemia.
Assay [6] has as its system HCC-2998 colon.
In assay [7] the test system is CCRF-CEM leukemia.
In assay [8] the test system is MCF7 breast.

In PubChem BioAssay (NCI) one finds GI50 and TGI data, which are given here for nine compounds.

Each structure is given as a SMILES string. Several values for one entry are separate records, joined by “and”; a condition that tells them apart may be missing. Equal entries are not always repeated.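 Cultured in 96-well plates, cells were exposed to test compound for 48 hours across five concentrations. GI50 = concentration required for 50% inhibition of growth. The concentration for full growth arrest is given as TGI.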

For the compound `O=C(Nc1nc(-c2ccccc2)cs1)c1cc(O)c(O)c(O)c1`, the GI50 was 2.66 µM in assay [1]; 3.14 µM in assay [2]; 3.46 µM in assay [3]; 8.02 µM in assay [4]; 2.72 µM in assay [5]; 10.1 µM in assay [6]. In addition, the results for the GI50 in assay [7] and in assay [8] were 0.687 µM and 4.73 µM, respectively. Moreover, the TGI in assay [1] was 37.4 µM; in assay [2], above 100 µM; in assay [3], 31.4 µM; in assay [4], 26.9 µM; in assay [5], above 100 µM; in assay [6], 36.3 µM. For the same compound, the TGI in assay [7] was 10.5 µM; in assay [8] it was above 100 µM.
As to `N#CSCC1CC(O)(c2ccccc2)CC(c2ccc(Cl)cc2)O1` (configuration not stated), the GI50 in assay [1] is 1.83 µM; in assay [2], 2.4 µM; in assay [3], 2.35 µM; in assay [4] it was 1.77 µM; in assay [5], 2.41 µM; in assay [6], 8.56 µM. For the same compound, the GI50 was 2.55 µM in assay [7] and 1.84 µM in assay [8]. Further, the TGI in assay [1] is 3.35 µM; in assay [2], 8.05 µM; in assay [3], 4.83 µM; in assay [4] it was 3.36 µM; in assay [5], 9.77 µM; in assay [6], 21.5 µM. Moreover, the TGI in assay [7] came out at 11.2 µM; in assay [8], 4.92 µM.
For `COc1ccc2c(c1)C(=O)c1c-2n(CCCN=[N+]=[N-])c(=O)c2cc(N)ccc12`, the GI50 was above 100 µM in assay [1]; above 100 µM in assay [2]; above 100 µM in assay [3]; 53.6 µM in assay [4]; above 100 µM in assay [5]; above 100 µM in assay [6]. The GI50 in assay [7] and in assay [8] was above 100 µM each time. Moreover, the TGI in assay [1], in assay [2], in assay [3], in assay [4], in assay [5] and in assay [6] was above 100 µM in each case. For the same compound, the TGI in assay [7] and in assay [8] was above 100 µM throughout.
Take `CC1=C/C(O)CC(=O)Cc2nc(co2)C(=O)N2CCC=C2C(=O)OC(C(C)C)C(C)/C=C\C(=O)NC/C=C\1` (configuration not stated): the GI50 is 10.5 µM in assay [1]; 28.8 µM in assay [2]; 15.1 µM in assay [4]; above 59.5 µM in assay [5]; 16.2 µM in assay [6]; 7.35 µM in assay [7]. In addition, the GI50 in assay [8] is 5.89 µM. The TGI in assay [1] is 35 µM and 37.7 µM; in assay [2], > 89.5 µM and 46.6 µM; in assay [3], > 47.9 µM and 51.6 µM; in assay [4], 30.3 µM and 25.3 µM; in assay [5], above 100 µM; in assay [6] it was 31.6 µM and 34.5 µM. Moreover, the TGI in assay [7] is > 100 µM and 81.9 µM; in assay [8], 25.1 µM and 41.2 µM.
For `Cc1ccc(NC(=O)N2CCCCC2)cc1[N+](=O)[O-]`, the GI50 in assay [1], in assay [2], in assay [3], in assay [4], in assay [5] and in assay [6] was above 100 µM throughout. The GI50 in assay [7] and in assay [8] was above 100 µM each time. Moreover, the TGI in assay [1], in assay [2], in assay [3], in assay [4], in assay [5] and in assay [6] was above 100 µM in each case. The TGI in assay [7] and in assay [8] was above 100 µM in each case.
As to `O=C(c1ccccc1)c1ccc(O)c2ncccc12`, the GI50 was 4.07 µM in assay [1]; 1.66 µM in assay [2]; 5.96 µM in assay [3]; 3.25 µM in assay [4]; 3.4 µM in assay [5]; 16.7 µM in assay [6]. Moreover, the results for the GI50 in assay [7] and in assay [8] were 3.64 µM and 2.93 µM, respectively. Further, the TGI is 17.9 µM in assay [1]; 25.9 µM in assay [2]; 68.5 µM in assay [3]; 16.9 µM in assay [4]; above 100 µM in assay [5]; 41.1 µM in assay [6]. In addition, the figures for the TGI in assay [7] and in assay [8] were above 100 µM and 9.08 µM, respectively.
As for `Clc1ccc(N/N=C(\c2ccccc2)c2ccccn2)nc1`, the GI50 is 0.0958 µM in assay [1]; 0.0505 µM in assay [2]; 0.474 µM in assay [3]; 0.39 µM in assay [4]; 0.0406 µM in assay [5]; 0.341 µM in assay [6]. Moreover, the results for the GI50 in assay [7] and in assay [8] were 0.0454 µM and 0.0302 µM, respectively. In addition, the TGI is above 65.3 µM in assay [1]; > 38.3 µM and 14.1 µM in assay [2]; 25 µM and 29.5 µM in assay [3]; > 41.4 µM and 5.81 µM in assay [4]; above 100 µM in assay [5]; > 48.4 µM and 21.1 µM in assay [6]. This compound also yielded a TGI in assay [8] above 100 µM.
As to `CNC(C)[C@H]1CCC2C3CCC4C[C@@H](N(C)C(=O)c5ccccc5)CC[C@]4(C)C3CC[C@@]21C` (some centres not stated), the GI50 in assay [1] is 0.854 µM; in assay [2], 0.407 µM; in assay [3], 2.26 µM; in assay [4], 1.44 µM; in assay [5] it was 0.351 µM; in assay [6], 1.63 µM. For the same compound, the figures for the GI50 in assay [7] and in assay [8] were 0.763 µM and 0.94 µM, respectively. Further, the TGI in assay [1] was 2.9 µM; in assay [2], 2.19 µM; in assay [3], 8.35 µM; in assay [4], 5.83 µM; in assay [5], 2.46 µM; in assay [6], 4.8 µM. The TGI in assay [7] came out at 3.4 µM; in assay [8], 3.35 µM.
`CC(=O)[O][Hg][CH2]C1(C)COC(C)([CH2][Hg][O]C(C)=O)CO1` (configuration not stated): the GI50 was 1.51 µM in assay [1]; 0.432 µM in assay [2]; 1.76 µM in assay [3]; 4.1 µM in assay [4]; 0.607 µM in assay [5]; 15.7 µM in assay [6]. In addition, the GI50 in assay [7] was 0.306 µM; in assay [8] it was 0.646 µM. Moreover, the TGI in assay [1] is 3.11 µM; in assay [2] it was 0.9 µM; in assay [3] it was 3.64 µM; in assay [4] it was 8.4 µM; in assay [5] it was 2.71 µM; in assay [6], 30.2 µM. Besides, the TGI is 1.72 µM in assay [7] and 2.32 µM in assay [8].
